The assay relates to Vero-E6 cells. The assay is described as follows: cells. The conditions noted are these: Chlorocebus sabaeus, Vero C1008, 24 h, read-out: PL_Result. The format is cell-based.

SMILES strings stand for the structures.

In the case of `C=CCN1CC[C@]23c4c5ccc(O)c4O[C@H]2[C@@H](OCCOCCOCCOCCOCCOCCOCCOC)CC[C@@]3(O)[C@H]1C5` [SPE_K41458421], the activation at 10 µM is -3.45%.
Regarding `CC(=O)[C@@]1(O)CC[C@H]2[C@@H]3C[C@H](C)C4=CC(=O)CC[C@]4(C)[C@H]3CC[C@@]21C` [SPE_K99615199], the activation at 10 µM was -9.68%.
As for `O=C(c1ccc(CN2CCOCC2)cc1)N1CCN(C2CC2)CC1` [SPE_K79595931], the figure is -2.77%; as for `COc1cc(Oc2ccnc3cc(OC)c(OC)cc23)ccc1NC(=O)NC(C)c1nccs1` (stereo not drawn) [SPE_A88787317], -0.267%.
In the case of `CC(C)=CCC[C@](C)(O)[C@H]1CC[C@]2(C)[C@@H]1[C@H](O)C[C@@H]1[C@@]3(C)CC[C@H](O)C(C)(C)[C@@H]3CC[C@]12C` [SPE_K60005752], the activation at 10 µM is -8.61%.
Under `CS(=O)(=O)c1ccc(-c2cn3ccccc3n2)cc1` [SPE_K45125084] stands -7.32%; under `CN1CCC[C@@H]1Cc1c[nH]c2ccc(CCS(=O)(=O)c3ccccc3)cc12` [SPE_K30652337], 1.82%.
Consider `CC(C)c1cc(C(=O)N2Cc3ccc(CN4CCN(C)CC4)cc3C2)c(O)cc1O` [SPE_K58435339], for which the activation at 10 µM was 0.714%.
Turning to `C[C@H](NC(=O)CNC(=O)c1cccc(Cl)c1)c1ccccc1` [SPE_K19482962], the activation at 10 µM was -10.5%.
For the molecule `Nc1ncc(Cc2ccc(Br)cc2)s1` [SPE_K03808106], the activation at 10 µM was -0.249%.
As to `CCS(=O)(=O)N1CCC[C@@H]2CN3CCc4cc(OC)ccc4[C@@H]3C[C@@H]21` [SPE_K86600316], the activation at 10 µM is -8.68%.
As for `COc1c(O)cc2c(c1O)[C@@H]1O[C@H](CO)[C@@H](O)[C@H](O)[C@H]1OC2=O` [SPE_K04176066], the activation at 10 µM was determined as 1.1%.
As for `Clc1ccc(Nc2nnc(Cc3ccncc3)c3ccccc23)cc1` [SPE_K70163715], the figure is -2.12%; as for `c1ccc(CCCCN2CCC(c3ccccc3)CC2)cc1` [SPE_K78061844], 42.6%.
As for `CC(C)=CCC[C@](C)(O[C@@H]1O[C@H](CO)[C@@H](O)[C@H](O)[C@H]1O)[C@H]1CC[C@]2(C)[C@@H]1[C@H](O)C[C@@H]1[C@@]3(C)CC[C@H](O)C(C)(C)[C@@H]3CC[C@]12C` [SPE_K01942833], the figure is -8.36%.
On to `CCC1NC(=O)c2cc(S(N)(=O)=O)c(Cl)cc2N1` (stereo not drawn) [SPE_A59303141], for which the activation at 10 µM is -4.81%.
For `Cn1cc(C2=C(c3cn(C4CCN(Cc5ccccn5)CC4)c4ccccc34)C(=O)NC2=O)c2ccccc21` [SPE_K79404599], the activation at 10 µM is -2.44%.
Under `C=CCN1C[C@H](C(=O)N(CCCN(C)C)C(=O)NCC)C[C@@H]2c3cccc4[nH]cc(c34)C[C@H]21` [SPE_K86882815] stands 9.44%; under `C=C(c1ccc(C(=O)O)cc1)c1cc2c(cc1C)C(C)(C)CCC2(C)C` [SPE_K92441787], -8.8%; under `CN(C)CCc1c[nH]c2ccc(CS(=O)(=O)N3CCCC3)cc12` [SPE_K67601717], -4.95%.
Under `NS(=O)(=O)c1ccc(-n2nc(C(F)(F)F)cc2-c2ccc(Cl)cc2)cc1` [SPE_K76365178] stands -2.4%; under `c1ccc2oc(C3=NCCN3)cc2c1` [SPE_K22745370], -9.99%.
As for `Oc1c(I)cc(Cl)c2cccnc12` [SPE_K09255212], the figure is 3.03%; as for `C[C@H](NC(=O)/C(C#N)=C/c1ccc(O)c(O)c1)c1ccccc1` [SPE_K17415526], -1.61%.
With `O=C(Oc1ccccc1C(=O)O)c1ccccc1O` [SPE_K48892307], the activation at 10 µM is -11.6%.
Consider `C[C@@H]1C[C@H]2[C@@H]3CCC4=CC(=O)C=C[C@]4(C)[C@@]3(F)[C@@H](O)C[C@]2(C)[C@@]1(O)C(=O)CO` [SPE_A10188456], for which the activation at 10 µM is -8.72%.
Turning to `O=C(O)C1=CCCN(CCON=C(c2ccccc2)c2ccccc2)C1` [SPE_K42221274], the activation at 10 µM was 0.196%.
As for `N=C(N)NCc1cccc(I)c1` [SPE_K43860855], the figure is -5.07%.
For the molecule `Cn1c2c(c3ccccc31)CCNCC2` [SPE_K16551401], the activation at 10 µM is 7.36%.
Under `COC(=O)C1=CCCN(C)C1` [SPE_K88646909] stands 3.55%; under `C=C[C@@H]1C[C@]1(NC(=O)[C@@H]1C[C@@H](Oc2ncc(OC)c3ccc(Cl)cc23)CN1C(=O)[C@@H](NC(=O)OC(C)(C)C)C(C)(C)C)C(=O)NS(=O)(=O)C1CC1` [SPE_K87028197], -0.0254%.
On to `O=[N+]([O-])c1cn2c(n1)OC[C@@H](OCc1ccc(OC(F)(F)F)cc1)C2` [SPE_K96671969], for which the activation at 10 µM was -12.7%.
With `C[C@]12CC[C@H]3[C@@H](CCC4=CC(=O)CC[C@@H]43)[C@@H]1CC[C@@H]2O` [SPE_K52080565], the activation at 10 µM is -3.9%.
As for `O=C(O)Cc1ccc(CCNS(=O)(=O)c2ccc(Cl)cc2)cc1` [SPE_K26813177], the figure is -0.423%.
With `CC(C)[C@@H](C)/C=C/[C@@H](C)[C@H]1CC[C@H]2C3=CC=C4C[C@@H](O)CC[C@]4(C)[C@H]3CC[C@]12C` [SPE_K09161066], the activation at 10 µM is -4.6%.
For `Cc1cc2c(cc1C(F)(F)F)N(C(=O)Nc1ccc(Oc3cccnc3C)nc1)CC2` [SPE_K99968849], the activation at 10 µM was determined as 3.28%.
Regarding `NCCc1ccc(O)c(O)c1` [SPE_K43887077], the activation at 10 µM was -4.01%.
Under `Cc1ccc(-c2nc3ccc(C)cn3c2CC(=O)N(C)C)cc1` [SPE_K44876623] stands -2.13%; under `Nc1ncnc2c1ncn2[C@@H]1O[C@H](CO)[C@@H](O)[C@H]1O` [SPE_K01577834], -3.02%.
As for `O=C(Nc1cc(Cl)cc(Cl)c1O)c1c(O)c(Cl)cc(Cl)c1Cl` [SPE_K07283971], the figure is -4.07%; as for `O=c1oc(-c2ccc(C(F)(F)F)cc2)nn1Cc1cc(Cl)ccc1O` [SPE_K95609758], 5.3%.
As for `C[C@]12C=CC(=O)C=C1CCC1C2[C@@H](O)C[C@@]2(C)C1CC[C@]2(O)C(=O)COC(=O)CCC(=O)O` (stereo partly drawn) [SPE_A78391468], the figure is 3.52%; as for `O=c1n(CCCN2CCN(c3cccc(Cl)c3)CC2)nc2ccccn12` [SPE_K70778732], -8.41%; as for `Cc1ccc(C)c(C(O)CNC(C)C)c1` (stereo not drawn) [SPE_A98083480], 3.82%.
For the molecule `C#CCN(C)Cc1ccccc1` [SPE_K83597974], the activation at 10 µM is -2.77%.
Under `Cc1cc(N2CCCCC2)nc2ccccc12` [SPE_K80021413] stands -1.3%; under `O=S(=O)(c1cccc2c(O)nccc12)N1CCCNCC1` [SPE_K77793136], -5.16%.
Under `O[C@H]1[C@H](O)[C@@H](O)CN2CC[C@H](O)[C@H]12` [SPE_K20897876] stands 7.21%.
In the case of `CCCCNc1cc(C(=O)O)cc(S(N)(=O)=O)c1Oc1ccccc1` [SPE_K38197229], the activation at 10 µM was -2.26%.
`O=C(NCCN1CCN(c2ncccn2)CC1)C12CC3CC(CC(C3)C1)C2` [SPE_K67789209]: the activation at 10 µM is -11.4%.
For the molecule `C[C@H]1CO[C@@H]2Cn3cc(C(=O)NCc4ccc(F)cc4F)c(=O)c(O)c3C(=O)N12` [SPE_A95114378], the activation at 10 µM was -1.46%.

(Values after paper PMC13083723 (Patterns, 2026).)
